PubChem BioAssay (NCI)
Several values for one entry are separate records, joined by “and”; a condition that tells them apart may be missing. Identical values can stand only once.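 Growth conditions: 96-well plates. Treatment: test compound, 48 hours, 5 concentrations. Analysis: linear interpolation between bracketing concentrations; unreached endpoints set to highest concentration. GI50 is the concentration that inhibits growth by half. TGI: concentration producing complete growth inhibition.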

Assays:
Experiment in all cases: NCI tumour cell line growth inhibition, 48 h
DU-145 prostate = tested on: DU-145 prostate
RXF 393 renal = tested on: RXF 393 renal
A549 NSCLC = tested on: A549 NSCLC
COLO 205 colon = tested on: COLO 205 colon
SF-539 CNS = tested on: SF-539 CNS
MCF7 breast = tested on: MCF7 breast
UACC-257 melanoma = tested on: UACC-257 melanoma
K-562 leukemia = tested on: K-562 leukemia
OVCAR-8 ovarian = tested on: OVCAR-8 ovarian
NCI-H460 lung = tested on: NCI-H460 lung

| SMILES | GI50 (DU-145 prostate) | TGI (DU-145 prostate) | GI50 (RXF 393 renal) | TGI (RXF 393 renal) | GI50 (A549 NSCLC) | TGI (A549 NSCLC) | GI50 (COLO 205 colon) | TGI (COLO 205 colon) | GI50 (SF-539 CNS) | TGI (SF-539 CNS) | GI50 (MCF7 breast) | TGI (MCF7 breast) | GI50 (UACC-257 melanoma) | TGI (UACC-257 melanoma) | GI50 (K-562 leukemia) | TGI (K-562 leukemia) | GI50 (OVCAR-8 ovarian) | TGI (OVCAR-8 ovarian) | GI50 (NCI-H460 lung) | TGI (NCI-H460 lung) |
| --- | --- | --- | --- | --- | --- | --- | --- | --- | --- | --- | --- | --- | --- | --- | --- | --- | --- | --- | --- | --- |
| CC1(C)N=C(N)N=C(N)N1c1cccc(CCc2ccccc2)c1 | 0.552 µM | > 100 µM | 3.82 µM | > 100 µM | 0.125 µM | > 100 µM | 0.574 µM | 16.9 µM | 1.37 µM | > 100 µM | 0.297 µM | > 43 µM | 0.533 µM | 32.5 µM | 0.299 µM | > 100 µM | 0.634 µM | > 100 µM | 0.257 µM | > 39.3 µM |
| COc1cccc(-c2nc3sccn3c2-c2ccnc(NCCCNS(=O)(=O)c3ccccc3)c2)c1 | 3.14 µM | > 100 µM | 5.79 µM | > 100 µM | 3.45 µM | > 100 µM | 3.01 µM | > 100 µM | 5.43 µM | > 100 µM | 3.83 µM | > 100 µM | 3.57 µM | > 100 µM | 2.57 µM | > 100 µM | 2.99 µM | > 100 µM | 3.35 µM | > 100 µM |
| COc1cc2ncnc(Oc3cccc(NC(=O)Nc4cc(C(C)(C)C(F)(F)F)on4)c3)c2cc1OC | 3.31 µM and 3.84 µM | > 58.5 µM | 2.16 µM and 2.68 µM | 8.14 µM and > 10 µM | 1.9 µM and 2.74 µM | 40.8 µM and > 10 µM | 0.103 µM and 0.153 µM | 5.71 µM and > 5.57 µM | 2.75 µM and 3.14 µM | 12.9 µM and > 10 µM | 2.79 µM and 3.18 µM | 15 µM and > 10 µM | 0.132 µM and 0.235 µM | 1.08 µM and 3.58 µM | 0.0153 µM and 0.0146 µM | 25.9 µM and > 10 µM | 2.54 µM and 3.09 µM | 21.5 µM and > 10 µM | 2.2 µM and 3.28 µM | 13.9 µM and > 10 µM |
| C[C@@H]1CCc2ncc(F)cc2[C@H]2CCCN2c2ccn3ncc(c3n2)C(=O)N1 | 73.7 µM | > 100 µM | 16.7 µM | 61 µM | 69.3 µM | > 100 µM | 75.9 µM | > 100 µM | 54.6 µM | > 100 µM | 53.1 µM | > 100 µM | > 100 µM | > 100 µM | 29.8 µM | > 100 µM | > 100 µM | > 100 µM | > 100 µM | > 100 µM |
| CCCCCC[C@H]1C(=O)O[C@H](C)[C@H](NC(=O)c2cccc(NC=O)c2OC)C(=O)O[C@@H](C)[C@@H]1OC(=O)CCC (tested in a mixture with another compound) | 11.7 µM | 30.1 µM | 15.3 µM | 32.4 µM | 7.24 µM | 22.8 µM | 12.6 µM | 26.7 µM | 15.5 µM | 33.3 µM | 33.4 µM | > 100 µM | 2.81 µM | 11.9 µM | 4.99 µM | 33.9 µM | 12.1 µM | 33.4 µM | 4.89 µM | 25.5 µM |
| Cc1ccc(OC(=O)N2C/C(=C\c3ccccc3)C(=O)/C(=C/c3ccccc3)C2)cc1 | – | > 100 µM | – | 37.5 µM | – | > 100 µM | – | > 100 µM | – | 66.2 µM | – | 56 µM | – | 69.5 µM | – | > 51.7 µM | – | 54.5 µM | – | > 100 µM |
